Data taken from US20220339249A1, “COMPOSITE BIOMARKER FOR CANCER THERAPY” (Bristol-Myers Squibb Company, priority 2019, published 2022).

Experiments:
TDO2 = TDO2 (Homo sapiens, UniProt P48775); settings: cited from earlier work
tumors = experiment: Response to nivolumab monotherapy (CheckMate trials) by TDO2 expression; assay type: in vivo, human; settings: immuno-oncology naïve patients
Protocol: TDO2 expression was determined by median. All tumors are […] from the biomarker cohort (Clinical Trial No. NCT02658890). Nivolumab monotherapy data is from CheckMate trials. NE=not evaluable; PD=progressive disease; PR=partial response; SCCHN=squamous cell carcinoma of the head and neck; SD=stable disease; TDO2=tryptophan 2,3-dioxygenase 2.
Therefore, the association between TDO2 expression and clinical response was evaluated. High or low TDO2 expression levels were determined by the median. Based on the objective response rate, 26% of patients with low TDO2 expression responded to treatment while only 13% of patients with high TDO2 expression responded to treatment (TABLE 4).

[1] = monotherapy, every two weeks; MTD not reached; cited from earlier work

Chain of TDO2 (P48775 whole entry): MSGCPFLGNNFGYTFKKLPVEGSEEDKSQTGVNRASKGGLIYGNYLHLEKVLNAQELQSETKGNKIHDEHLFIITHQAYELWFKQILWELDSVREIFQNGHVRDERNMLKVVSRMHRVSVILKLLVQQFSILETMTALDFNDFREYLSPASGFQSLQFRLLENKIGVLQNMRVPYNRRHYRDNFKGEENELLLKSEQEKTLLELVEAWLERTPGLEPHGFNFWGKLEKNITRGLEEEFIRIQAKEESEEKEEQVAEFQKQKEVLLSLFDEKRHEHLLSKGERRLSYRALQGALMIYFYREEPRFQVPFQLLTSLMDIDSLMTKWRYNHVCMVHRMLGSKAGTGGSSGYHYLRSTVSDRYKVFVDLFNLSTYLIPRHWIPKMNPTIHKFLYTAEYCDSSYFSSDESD

Row | Molecule | inhibition of TDO2 enzymatic activity (TDO2) | association between TDO2 expression and response (tumors) | maximum tolerated dose (MTD) [1] [mg/kg]
1 | C[C@@H](C(=O)Nc1ccc(Cl)cc1)[C@H]1CC[C@@H](c2ccnc3ccc(F)cc32)CC1 [linrodostat, (2R)—N-(4-chlorophenyl)-2-(cis-4-(6-fluoroquinolin-4-yl)cyclohexyl)propanamide] | not TDO2 enzymatic activity | – | –
2 | nivolumab | – | No association | > 10
